Assay results published in ChEMBL document CHEMBL1201862, “PubChem BioAssay data set” (2004).
Calls of active or inactive are those of the source.

Legend:
[1] = target: Peroxisome proliferator-activated receptor gamma/Nuclear receptor coactivator 2 (Homo sapiens, UniProt P37231); type: functional;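 also: agonist potency for raising coactivator recruitment to the receptor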
[2] = target: Peroxisome proliferator-activated receptor gamma/Nuclear receptor coactivator 1 (Homo sapiens, UniProt P37231); type: functional;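 also: agonist potency as compounds enhance coactivator SRC-1 recruitment to PPARgamma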
[3] = target: Peroxisome proliferator-activated receptor gamma/Nuclear receptor coactivator 3 (Homo sapiens, UniProt P37231); type: functional;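 also: agonist potency for raising coactivator recruitment to the receptor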
[4] = target: Luciferin 4-monooxygenase (Photinus pyralis, UniProt P08659); assay: Counter Screen for Luciferase-based Assay Positives. [Related pubchem assays: 620, 618, 411 ]
HT-1080 = assay: cytotoxicity in HT1080 fibrosarcoma cells, cell-based, fluorescence readout (AID 620); type: functional; details: Homo sapiens
[5] = cytotoxicity in HEK-293T cells, dose response, cytotoxicity control for TCR NF-kB inhibitor project, luminescence, T-cell screen hits (AID 489026); type: functional, cell-based;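 also: cells exposed to compound about 14 hours before the viability readout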
[6] = inhibitors of HIV Env-driven cell fusion, dose response, cherry-pick (AID 652057); type: functional, cell-based
[7] = ZM109 Env clade C HIV-1 fusion inhibitors, dose response, HeLa effector, CEM target cells, luciferase, cherry-pick (AID 652058); type: functional, cell-based
[8] = off-target signal loss in HeLa-CEM21 co-culture – HeLa F-luc CTL cells, cherry-picked, counter-screen for HIV-1 Env fusion inhibitor project, dose response (AID 652040); type: functional, cell-based;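 also: potency for signal decrease marking cytotoxic or nonspecific inhibition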
[9] = inhibitors of clade B AD8 Env fusion, dose response, cell-based, cherry-pick (AID 652062); type: functional;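 also: luciferase signal from cell-cell fusion driven by HIV-1 clade B AD8 Env; potency is for inhibitors of fusion seen as a drop in luminescence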
Aspartyl aminopeptidase = Aspartyl aminopeptidase (Plasmodium falciparum 3D7, UniProt Q8I2J3)
Procathepsin L = Procathepsin L (Homo sapiens, UniProt P07711)
Aminopeptidase N = target: T1, Aminopeptidase N (Plasmodium falciparum FcB1/Columbia, UniProt O96935); assay: P. falciparum M1AAP inhibitors, biochemical, fluorogenic H-Leu-NHMec substrate, 1536-well (AID 1445); parameters: species or system Plasmodium falciparum 3D7, 3D7
T1 sequence (O96935 whole entry): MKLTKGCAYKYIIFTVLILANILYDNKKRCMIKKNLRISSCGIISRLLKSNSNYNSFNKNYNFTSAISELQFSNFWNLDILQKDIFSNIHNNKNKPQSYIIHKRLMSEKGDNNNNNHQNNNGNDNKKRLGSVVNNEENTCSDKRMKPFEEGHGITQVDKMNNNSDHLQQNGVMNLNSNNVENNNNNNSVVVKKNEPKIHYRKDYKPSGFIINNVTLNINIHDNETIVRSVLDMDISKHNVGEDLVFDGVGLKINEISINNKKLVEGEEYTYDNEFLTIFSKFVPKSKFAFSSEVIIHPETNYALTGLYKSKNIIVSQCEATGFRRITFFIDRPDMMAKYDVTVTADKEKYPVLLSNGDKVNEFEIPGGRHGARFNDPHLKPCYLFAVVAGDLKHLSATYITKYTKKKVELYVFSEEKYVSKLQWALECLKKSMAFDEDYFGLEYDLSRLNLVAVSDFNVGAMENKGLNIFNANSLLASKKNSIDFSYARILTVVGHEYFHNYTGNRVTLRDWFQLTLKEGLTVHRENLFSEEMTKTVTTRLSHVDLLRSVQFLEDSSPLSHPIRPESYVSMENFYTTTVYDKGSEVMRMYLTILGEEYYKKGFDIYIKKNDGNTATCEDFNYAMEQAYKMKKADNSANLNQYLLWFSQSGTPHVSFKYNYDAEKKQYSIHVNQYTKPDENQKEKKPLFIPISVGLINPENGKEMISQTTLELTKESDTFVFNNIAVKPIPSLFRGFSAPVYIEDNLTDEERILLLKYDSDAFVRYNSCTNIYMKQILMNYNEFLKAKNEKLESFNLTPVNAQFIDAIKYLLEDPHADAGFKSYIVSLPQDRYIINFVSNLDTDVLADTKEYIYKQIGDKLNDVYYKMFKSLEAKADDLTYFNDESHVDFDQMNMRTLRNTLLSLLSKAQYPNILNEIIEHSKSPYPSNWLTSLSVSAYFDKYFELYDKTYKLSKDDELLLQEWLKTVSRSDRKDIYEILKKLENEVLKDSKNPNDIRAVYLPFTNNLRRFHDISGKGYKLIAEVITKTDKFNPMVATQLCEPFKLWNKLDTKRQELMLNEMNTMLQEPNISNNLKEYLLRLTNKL

[10] = test system: Streptococcus sp. 'group A'; assay: growth inhibition of control SK(-) GAS strain, dose response, counter-screen for streptokinase expression inhibitor project, luminescence, kanamycin, BacTiterGlo, confirmation (AID 1900); type: functional, organism-based
[11] = target: Transitional endoplasmic reticulum ATPase (Homo sapiens, UniProt P55072, C522A); assay: C522A mutant p97 ATPase inhibitors, dose response, counter-screen for p97 inhibitor project, biochemical, luminescence (AID 1544)
Streptokinase A = target: T2, Streptokinase A (Streptococcus pyogenes serotype M1, UniProt P10520); assay: S. pyogenes streptokinase expression inhibitors, potency, dose response, plasminogen activation absorbance, OD405 (AID 1914); type: functional, Streptococcus pyogenes M1 GAS;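 also: secreted streptokinase activity via plasminogen activation per viability signal from cell pellet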
T2 sequence (P10520 whole entry): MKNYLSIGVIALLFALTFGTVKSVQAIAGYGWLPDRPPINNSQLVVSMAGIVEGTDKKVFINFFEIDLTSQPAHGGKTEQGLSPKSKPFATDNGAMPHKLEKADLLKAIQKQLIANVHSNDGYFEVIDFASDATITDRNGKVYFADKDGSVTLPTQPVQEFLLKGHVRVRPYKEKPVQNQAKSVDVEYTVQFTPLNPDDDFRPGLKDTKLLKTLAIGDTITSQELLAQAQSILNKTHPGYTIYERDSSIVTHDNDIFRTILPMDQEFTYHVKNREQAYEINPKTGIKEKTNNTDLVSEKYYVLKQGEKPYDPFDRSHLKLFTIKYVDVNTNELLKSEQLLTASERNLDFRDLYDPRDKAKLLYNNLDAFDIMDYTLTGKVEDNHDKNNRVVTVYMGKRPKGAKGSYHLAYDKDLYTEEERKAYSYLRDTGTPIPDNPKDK

[12] = target: Transitional endoplasmic reticulum ATPase (Homo sapiens, UniProt P55072); assay: p97 ATPase inhibitors, dose response, biochemical (AID 1534)
[13] = target: Induced myeloid leukemia cell differentiation protein Mcl-1 (Homo sapiens, UniProt Q07820); type: functional
Streptococcus [14] = assay: Group A Streptococcus viability loss, dose response, counter-screen for streptokinase expression inhibitor project, luminescence, BacTiterGlo (AID 1915); type: functional, organism-based;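 also: potency for reduction of bacterial viability or growth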
[15] = target: T3, Probable nicotinate-nucleotide adenylyltransferase (Staphylococcus aureus (strain N315), UniProt P65502); type: functional, Staphylococcus aureus subsp. aureus N315;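 as to IC50 Mean: confirmatory dose-response retesting of NadD inhibitor hits first found in an ultra-high-throughput screen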
[16] = target: T3, Probable nicotinate-nucleotide adenylyltransferase; type: functional, Staphylococcus aureus subsp. aureus N315; details: read-out: IC50_Mean
Cytochrome P450 3A4 = Cytochrome P450 3A4 (Homo sapiens, UniProt P08684); details: Potency;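 also: confirmatory qHTS run detecting inhibitors and substrates of CYP3A4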
[17] = target: T4, Heat shock 70 kDa protein 1A (Homo sapiens, UniProt P0DMV8); assay: Hsp70 inhibitors, biochemical, TR-FRET (AID 786)
[18] = target: T4, Heat shock 70 kDa protein 1A; assay: Hsp70 inhibitors, probe displacement, primary screen, biochemical, fluorescence polarization (AID 583)
[19] = target: G2/mitotic-specific cyclin-B1 (Homo sapiens, UniProt P14635); assay: Counterscreen assay for inhibitors of Wee1 degradation: dose response cell-based assay to identify inhibitors of cyclin B degradation. [Related pubchem assays: 1410, 1321 ]; type: functional
Wee1-like protein kinase = Wee1-like protein kinase (Homo sapiens, UniProt P30291); assay: Dose Response Cell-based Assay for Inhibitors of Wee1 Degradation. [Related pubchem assays: 1410, 1321 ]; type: functional
[20] = target: G-protein coupled receptor 55 (Homo sapiens, UniProt Q9Y2T6); assay: GPR55 antagonists blocking LPI-driven arrestin recruitment, primary screen, imaging, U2OS, beta-arrestin-GFP, LPI agonist (AID 2013); type: functional;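 also: antagonist potency measured as reduced agonist-driven arrestin aggregation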
Cytochrome P450 2C9 = Cytochrome P450 2C9 (Homo sapiens, UniProt P11712); details: Potency
Streptococcus [21] = assay: Luminescence Microorganism-Based Dose Response Follow up to Identify Compounds Cytotoxic to Streptococcus. [Related pubchem assays: 1677 (Project Summary), 1915, 1914, 1902 (Retest at Dose), 1900 (Counter Screen), 1662 (Primary HTS)]; type: functional, organism-based
[22] = target: Epstein-Barr nuclear antigen 1 (Epstein-Barr virus (strain B95-8) (HHV-4) (Human herpesvirus 4), UniProt P03211); assay: EBNA-1 inhibitors, dose response, biochemical, fluorescence polarization, 1536-well (AID 2381); parameters: species or system human gammaherpesvirus 4;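 also: fluorescence polarization of a Cy5 DNA probe bound by EBNA-1 protein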
[23] = target: Lytic switch protein BZLF1 (Epstein-Barr virus (strain B95-8) (HHV-4) (Human herpesvirus 4), UniProt P03206); assay: EBV ZTA inhibitors, dose response, counter-screen for EBNA-1 inhibitor project, biochemical, fluorescence polarization, Epstein-Barr virus, 1536-well (AID 2377); parameters: species or system human gammaherpesvirus 4;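 also: fluorescence polarization of Cy5-labelled ZRE DNA probe bound by purified Zta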
Estrogen receptor [24] = target: T5, Estrogen receptor (Homo sapiens, UniProt P03372);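 also: potency for inhibiting coactivator peptide recruitment to the receptor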
T5 sequence (P03372 whole entry): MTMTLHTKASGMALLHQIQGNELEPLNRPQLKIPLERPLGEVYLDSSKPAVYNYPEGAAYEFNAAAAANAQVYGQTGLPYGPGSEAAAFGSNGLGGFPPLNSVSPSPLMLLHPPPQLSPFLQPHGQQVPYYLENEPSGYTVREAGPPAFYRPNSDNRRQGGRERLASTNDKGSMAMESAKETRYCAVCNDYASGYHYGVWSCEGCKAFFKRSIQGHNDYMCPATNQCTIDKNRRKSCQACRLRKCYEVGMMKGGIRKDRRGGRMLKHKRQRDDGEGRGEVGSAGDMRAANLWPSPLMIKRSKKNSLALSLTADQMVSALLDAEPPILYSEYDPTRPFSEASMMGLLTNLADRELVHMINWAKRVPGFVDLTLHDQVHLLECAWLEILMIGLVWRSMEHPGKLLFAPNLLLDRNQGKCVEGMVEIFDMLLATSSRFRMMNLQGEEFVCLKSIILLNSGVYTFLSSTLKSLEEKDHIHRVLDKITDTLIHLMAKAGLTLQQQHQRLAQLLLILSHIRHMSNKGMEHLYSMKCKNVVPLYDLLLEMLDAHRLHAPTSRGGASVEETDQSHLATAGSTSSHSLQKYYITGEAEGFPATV

Estrogen receptor [25] = target: T5, Estrogen receptor; assay: ERα–SRC-3 coactivator interaction inhibitors, confirmation, orthogonal assay, biochemical, ELISA, streptavidin-HRP readout (AID 1079)
Estrogen receptor beta = Estrogen receptor beta (Homo sapiens, UniProt Q92731); assay: ERβ–SRC-3 coactivator interaction inhibitors, confirmation, orthogonal assay, biochemical, ELISA, streptavidin-HRP readout (AID 1060)
Sequence of Estrogen receptor beta (Q92731 whole entry): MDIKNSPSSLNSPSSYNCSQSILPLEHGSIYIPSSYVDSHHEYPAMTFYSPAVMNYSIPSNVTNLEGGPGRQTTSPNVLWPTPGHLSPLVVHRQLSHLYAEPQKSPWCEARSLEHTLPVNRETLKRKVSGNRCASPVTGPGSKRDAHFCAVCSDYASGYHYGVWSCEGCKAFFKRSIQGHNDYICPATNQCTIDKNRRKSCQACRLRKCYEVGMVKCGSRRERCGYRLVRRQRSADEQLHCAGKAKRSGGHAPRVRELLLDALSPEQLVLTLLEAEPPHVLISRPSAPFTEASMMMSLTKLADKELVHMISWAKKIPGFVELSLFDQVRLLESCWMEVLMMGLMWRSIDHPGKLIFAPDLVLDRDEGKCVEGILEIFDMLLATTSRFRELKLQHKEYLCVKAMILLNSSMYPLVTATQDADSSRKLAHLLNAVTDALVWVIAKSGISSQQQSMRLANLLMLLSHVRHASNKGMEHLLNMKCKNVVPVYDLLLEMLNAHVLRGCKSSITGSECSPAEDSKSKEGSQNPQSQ

T4 sequence (P0DMV8 whole entry): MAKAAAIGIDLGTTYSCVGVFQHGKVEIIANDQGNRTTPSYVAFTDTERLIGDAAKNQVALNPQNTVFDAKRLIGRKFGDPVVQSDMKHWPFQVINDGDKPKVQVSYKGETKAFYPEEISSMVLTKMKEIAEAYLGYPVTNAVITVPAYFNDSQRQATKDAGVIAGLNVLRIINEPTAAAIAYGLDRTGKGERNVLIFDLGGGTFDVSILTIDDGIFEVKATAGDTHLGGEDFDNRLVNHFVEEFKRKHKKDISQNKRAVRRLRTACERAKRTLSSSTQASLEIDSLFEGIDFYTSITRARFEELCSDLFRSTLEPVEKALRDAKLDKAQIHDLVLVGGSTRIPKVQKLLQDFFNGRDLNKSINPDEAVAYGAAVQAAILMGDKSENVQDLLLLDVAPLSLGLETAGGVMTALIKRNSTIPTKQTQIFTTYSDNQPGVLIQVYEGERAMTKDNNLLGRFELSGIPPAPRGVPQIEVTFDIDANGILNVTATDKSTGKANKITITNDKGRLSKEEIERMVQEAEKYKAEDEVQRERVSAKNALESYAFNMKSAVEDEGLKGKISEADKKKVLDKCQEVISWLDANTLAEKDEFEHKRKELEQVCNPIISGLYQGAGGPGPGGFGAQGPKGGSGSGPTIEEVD
T3 sequence (P65502 whole entry): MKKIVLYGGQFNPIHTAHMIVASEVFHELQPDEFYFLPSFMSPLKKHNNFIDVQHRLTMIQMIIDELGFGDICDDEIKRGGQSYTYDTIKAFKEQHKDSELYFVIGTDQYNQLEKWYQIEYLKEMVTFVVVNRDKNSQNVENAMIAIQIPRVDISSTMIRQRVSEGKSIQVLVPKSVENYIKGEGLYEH
Sequence of Cytochrome P450 2C9 (P11712 whole entry): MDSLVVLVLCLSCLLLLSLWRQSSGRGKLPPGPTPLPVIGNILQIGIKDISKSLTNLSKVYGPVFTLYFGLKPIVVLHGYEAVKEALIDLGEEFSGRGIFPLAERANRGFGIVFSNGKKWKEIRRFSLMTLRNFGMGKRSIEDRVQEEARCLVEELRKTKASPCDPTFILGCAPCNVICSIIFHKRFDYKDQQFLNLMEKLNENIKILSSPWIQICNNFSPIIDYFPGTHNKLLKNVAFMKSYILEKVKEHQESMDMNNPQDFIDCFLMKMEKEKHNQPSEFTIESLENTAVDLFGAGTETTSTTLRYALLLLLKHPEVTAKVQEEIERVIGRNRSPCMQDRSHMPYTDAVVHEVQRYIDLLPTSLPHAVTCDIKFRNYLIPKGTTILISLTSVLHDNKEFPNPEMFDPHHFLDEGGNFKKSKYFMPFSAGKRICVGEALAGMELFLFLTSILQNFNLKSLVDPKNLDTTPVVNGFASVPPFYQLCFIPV
Sequence of Induced myeloid leukemia cell differentiation protein Mcl-1 (Q07820 whole entry): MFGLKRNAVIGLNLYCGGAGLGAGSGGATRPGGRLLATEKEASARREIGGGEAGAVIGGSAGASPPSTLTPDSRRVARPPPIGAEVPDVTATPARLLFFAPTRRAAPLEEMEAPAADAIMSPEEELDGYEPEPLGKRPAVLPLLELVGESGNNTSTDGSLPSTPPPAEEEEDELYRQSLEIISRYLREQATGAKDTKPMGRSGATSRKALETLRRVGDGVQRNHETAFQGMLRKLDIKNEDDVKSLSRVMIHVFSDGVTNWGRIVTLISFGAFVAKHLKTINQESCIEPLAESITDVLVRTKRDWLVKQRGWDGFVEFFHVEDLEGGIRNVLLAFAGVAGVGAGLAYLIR
Sequence of Procathepsin L (P07711 whole entry): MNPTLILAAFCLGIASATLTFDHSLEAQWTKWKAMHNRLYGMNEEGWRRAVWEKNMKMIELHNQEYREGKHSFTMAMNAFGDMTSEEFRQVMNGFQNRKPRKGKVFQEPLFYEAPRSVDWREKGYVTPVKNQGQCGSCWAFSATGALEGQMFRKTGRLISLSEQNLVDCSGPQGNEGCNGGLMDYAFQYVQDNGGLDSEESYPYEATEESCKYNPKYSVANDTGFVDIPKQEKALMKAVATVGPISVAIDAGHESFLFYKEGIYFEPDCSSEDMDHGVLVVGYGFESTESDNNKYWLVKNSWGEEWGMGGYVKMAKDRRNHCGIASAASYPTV
Sequence of Transitional endoplasmic reticulum ATPase (Homo sapiens, UniProt P55072, C522A) (P55072 2-806 C522A limits assumed): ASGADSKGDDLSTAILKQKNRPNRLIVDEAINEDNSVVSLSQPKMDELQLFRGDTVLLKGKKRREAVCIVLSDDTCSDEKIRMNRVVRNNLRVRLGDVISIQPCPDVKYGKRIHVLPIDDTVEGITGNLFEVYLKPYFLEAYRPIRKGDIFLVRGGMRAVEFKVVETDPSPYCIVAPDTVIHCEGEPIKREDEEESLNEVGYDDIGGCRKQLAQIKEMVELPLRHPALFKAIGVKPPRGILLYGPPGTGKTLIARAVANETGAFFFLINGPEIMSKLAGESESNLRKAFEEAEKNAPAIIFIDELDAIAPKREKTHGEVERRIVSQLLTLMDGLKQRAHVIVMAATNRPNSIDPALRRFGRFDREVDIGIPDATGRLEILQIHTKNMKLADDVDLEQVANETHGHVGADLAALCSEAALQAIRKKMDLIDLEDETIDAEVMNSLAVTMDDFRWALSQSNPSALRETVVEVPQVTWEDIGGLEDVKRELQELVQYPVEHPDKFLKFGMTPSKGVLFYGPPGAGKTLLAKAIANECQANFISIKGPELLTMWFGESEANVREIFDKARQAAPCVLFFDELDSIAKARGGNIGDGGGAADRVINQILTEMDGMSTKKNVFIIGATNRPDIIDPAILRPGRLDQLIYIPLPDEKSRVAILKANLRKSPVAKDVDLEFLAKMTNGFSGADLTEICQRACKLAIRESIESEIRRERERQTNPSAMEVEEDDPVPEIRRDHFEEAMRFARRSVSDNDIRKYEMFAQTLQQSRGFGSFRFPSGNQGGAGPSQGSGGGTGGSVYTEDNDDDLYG
Sequence of Lytic switch protein BZLF1 (P03206 whole entry): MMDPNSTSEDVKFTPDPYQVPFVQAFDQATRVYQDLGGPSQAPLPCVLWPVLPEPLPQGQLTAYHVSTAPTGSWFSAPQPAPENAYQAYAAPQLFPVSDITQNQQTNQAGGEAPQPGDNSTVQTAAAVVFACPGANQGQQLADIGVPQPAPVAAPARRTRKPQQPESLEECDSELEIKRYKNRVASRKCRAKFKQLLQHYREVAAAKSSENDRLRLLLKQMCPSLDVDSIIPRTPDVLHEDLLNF
Sequence of Luciferin 4-monooxygenase (P08659 whole entry): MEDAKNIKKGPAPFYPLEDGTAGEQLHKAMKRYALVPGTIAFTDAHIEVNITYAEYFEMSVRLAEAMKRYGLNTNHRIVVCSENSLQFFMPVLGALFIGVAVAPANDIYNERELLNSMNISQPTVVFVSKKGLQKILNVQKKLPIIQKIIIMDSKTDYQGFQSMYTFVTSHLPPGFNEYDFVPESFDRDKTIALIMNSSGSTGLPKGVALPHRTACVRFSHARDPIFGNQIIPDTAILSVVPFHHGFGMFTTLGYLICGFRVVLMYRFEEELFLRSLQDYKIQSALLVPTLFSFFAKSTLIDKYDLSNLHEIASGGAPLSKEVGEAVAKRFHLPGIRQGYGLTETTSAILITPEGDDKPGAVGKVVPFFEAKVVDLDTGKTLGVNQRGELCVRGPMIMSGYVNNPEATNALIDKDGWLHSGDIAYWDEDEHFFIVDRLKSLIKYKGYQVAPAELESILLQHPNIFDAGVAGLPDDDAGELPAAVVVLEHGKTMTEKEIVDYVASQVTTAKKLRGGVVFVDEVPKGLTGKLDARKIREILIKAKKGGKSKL
Sequence of Cytochrome P450 3A4 (P08684 whole entry): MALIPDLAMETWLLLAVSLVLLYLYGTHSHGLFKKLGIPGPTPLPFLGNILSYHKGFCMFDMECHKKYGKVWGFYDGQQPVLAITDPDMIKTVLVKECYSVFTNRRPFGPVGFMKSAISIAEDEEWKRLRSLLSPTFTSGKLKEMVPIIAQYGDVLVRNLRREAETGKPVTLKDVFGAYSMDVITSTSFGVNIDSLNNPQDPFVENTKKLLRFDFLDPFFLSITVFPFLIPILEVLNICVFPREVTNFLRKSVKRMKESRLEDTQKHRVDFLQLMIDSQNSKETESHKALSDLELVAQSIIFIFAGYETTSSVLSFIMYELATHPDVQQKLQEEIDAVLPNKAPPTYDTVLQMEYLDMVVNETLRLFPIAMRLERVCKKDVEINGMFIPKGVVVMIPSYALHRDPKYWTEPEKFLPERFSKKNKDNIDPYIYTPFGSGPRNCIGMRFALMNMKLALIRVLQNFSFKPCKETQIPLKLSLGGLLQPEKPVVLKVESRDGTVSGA
Sequence of G-protein coupled receptor 55 (Q9Y2T6 whole entry): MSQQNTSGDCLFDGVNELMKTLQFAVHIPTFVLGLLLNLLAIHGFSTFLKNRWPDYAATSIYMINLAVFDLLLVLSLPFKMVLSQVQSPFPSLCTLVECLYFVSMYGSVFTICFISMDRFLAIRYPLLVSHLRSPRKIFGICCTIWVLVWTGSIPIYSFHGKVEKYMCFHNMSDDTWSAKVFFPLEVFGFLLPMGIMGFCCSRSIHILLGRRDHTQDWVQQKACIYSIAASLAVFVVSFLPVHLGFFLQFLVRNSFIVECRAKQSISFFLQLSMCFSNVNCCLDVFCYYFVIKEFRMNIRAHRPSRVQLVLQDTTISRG

## CCn1cc(CNCc2cn(C)nc2-c2ccc(C3CCCCC3)cc2)cn1
[1]
  EC50: > 79.4 µM (not active)
[2]
  EC50: > 79.4 µM (not active)
[3]
  EC50: > 79.4 µM (not active)

## Cc1ccc(C(=O)Nc2cccc(C(=O)O)c2)cc1
[4]
  EC50: 96.3 µM (active)
HT-1080
  EC50: > 50 µM (not active)
[5]
  IC50: > 80 µM (inactive)
[6]
  AC50: 1.38 µM (active)
[7]
  AC50: 7.9 µM (active)
[8]
  AC50: 2.07 µM (active)
[9]
  AC50: 4.84 µM (active)

## O=C(Nc1ccc(Cl)cc1Cl)Nn1cnnc1
Aspartyl aminopeptidase
  IC50: 0.791 µM (active)
Procathepsin L
  IC50: > 59.6 µM (not active)

## O=c1cc(-c2ccc(O)c(-c3c(O)cc(O)c4c(=O)cc(-c5ccc(O)cc5)oc34)c2)oc2cc(O)cc(O)c12 [AMENTOFLAVONE]
Aminopeptidase N
  IC50: 108 µM (active)
[10]
  EC50: 1.68 µM (active)
[11]
  IC50: > 50 µM (not active)
Streptokinase A
  EC50: > 150 µM (not active)
[12]
  IC50: 8.98 µM (active)
[13]
  IC50: 1.63 µM (active)
Streptococcus [14]
  EC50: > 150 µM (not active)
[15]
  IC50: 9.38 µM (active)
[16]
  IC50: 29.4 µM (active)

## N#C/C(=C\c1ccc(O)cc1)C(=O)O [alpha-CYANO-4-HYDROXYCINNAMIC ACID]
Cytochrome P450 3A4
  AC50: 31.6 µM (inconclusive)

## CCOC(=O)N1CCN(CC(=O)Nc2cc(OCC)ccc2OCC)CC1
[17]
  IC50: > 100 µM (not active)
[18]
  IC50: > 100 µM (not active)

## O=C(/C=C/c1cccnc1)/C=C/c1cccnc1
[19]
  EC50: > 49.7 µM (not active)
Wee1-like protein kinase
  EC50: > 1.84 µM (active)
[20]
  IC50: 3.26 µM (active)

## Clc1ccc([C@@H](c2ccccc2Cl)C(Cl)Cl)cc1
Cytochrome P450 2C9
  AC50: 15.8 µM (inconclusive)

## O=[N+]([O-])c1ccccc1NCCNc1ncc(C(F)(F)F)cc1Cl
[10]
  EC50: > 150 µM (not active)
Streptococcus [21]
  EC50: > 500 µM (not active)
Streptokinase A
  EC50: 5.57 µM (active)
[22]
  IC50: 16.8 µM (not active)
[23]
  IC50: 23.5 µM (not active)
Streptococcus [14]
  EC50: > 150 µM (not active)

## O=C(CCCn1c(=S)[nH]c2ccccc2c1=O)N1CCN(c2cccc(Cl)c2)CC1
Estrogen receptor [24]
  IC50: 5.73 µM (active)
Estrogen receptor [25]
  IC50: 0.12 µM (not active)
Estrogen receptor beta
  IC50: > 50 µM (not active)
